According to patent publication US20230024652A1, “PHARMACEUTICAL COMPOSITION COMPRISING SMALL OCTOPUS-DERIVED PEPTIDE FOR TREATMENT OF INFLAMMATORY DISEASE” (NATIONAL MARINE BIODIVERSITY INSTITUTE OF KOREA, priority 2020, published 2023):
Where a SMILES comes first, the peptide text is derived from it.

Tested on: RAW 264.7 macrophages
Assay: MTT cell viability / cytotoxicity and cyto-protection
Type: cell-based
Details: 62.5 to 500 μg/mL
Procedure: As macrophages, RAW 264.7 cells (American Type Culture Collection; ATCCUSA) were cultured in DMEM (Gibco/BRL, Canada) supplemented with 10% heat inactivated FBS and 1% antibiotics in 37° C. at 100% humidity under 5% CO2. […] After 24 hours, culture medium containing 3-(4,5-dimethylthiazol-2-yl)-2,5-diphenyltetrazolium bromide (MTT) (0.1 mg/mL) was added to each well. After 1 hour, culture medium was removed, and formazan crystals were dissolved in dimethyl sulfoxide (DMSO) and measured at 550 nm using a microplate reader. The concentration of NO in the culture medium was determined by Griess reagent (Abekura et al. Int Immunopharmacol 68:156, 2019). The cell viability of the control group untreated with Octominin was designated as 100%, which indicates no cytotoxicity

In the case of `CC[C@H](C)[C@H](NC(=O)[C@H](C)NC(=O)[C@H](CCCCN)NC(=O)CNC(=O)[C@H](C)NC(=O)[C@H](Cc1c[nH]cn1)NC(=O)[C@@H](NC(=O)[C@H](C)NC(=O)CNC(=O)[C@H](CCCNC(=N)N)NC(=O)[C@@H](NC(=O)[C@H](CC(C)C)NC(=O)[C@H](Cc1c[nH]c2ccccc12)NC(=O)CN)[C@@H](C)CC)[C@@H](C)CC)C(=O)N[C@@H](Cc1c[nH]cn1)C(=O)NCC(=O)N[C@@H](CC(C)C)C(=O)N[C@H](C(=O)N[C@@H](Cc1c[nH]cn1)C(=O)N[C@@H](CCCNC(=N)N)C(=O)N[C@@H](CCCNC(=N)N)C(=O)N[C@@H](CCCNC(=N)N)C(=O)N[C@@H](Cc1c[nH]cn1)C(=O)O)[C@@H](C)CC` [Octominin] (H-GWLIRGAIHAGKAIHGLIHRRRH-OH), the toxicity to macrophages is reported as “non-toxic” and the “cell viability reduction (cytotoxicity, MTT)” value (RAW 264.7 macrophages without LPS, compared with control group) is reported as “did not show any significant cell viability reduction”.
